melting point [°C] | SMILES
251 to 253 | Cc1nnc(CNC(=O)CN2C(=O)c3ccccc3C2=O)n1-c1ccc(Cl)cc1C(=O)c1ccccc1
196 | CCCn1c(=O)c2[nH]c(/C=C/c3ccc(OC)c(OC)c3)nc2n(CCC)c1=O
77 | S=c1nc2ccc(Br)cn2c(=S)n1-c1ccc(Br)cn1
304 | O=c1[nH]cnc2sc(Br)cc12
153 to 154 | CCCOc1cccc(CCOc2ccc3c(c2)C=C(C(=O)Nc2ccc(CN(C)C4CCOCC4)cc2)CCS3(=O)=O)c1
225 | O=c1[nH]c(CCCl)c(Cl)c(=O)[nH]1
70 to 72 | COCOc1cc(Cl)c(Br)cc1C(=O)c1ncccc1OCOC
> 200 | N#Cc1c(N2CCc3ccccc3CC2)nc(N)n(N)c1=O
94 to 100 | CN(C)C(Cl)=Nc1snc(C(C)(C)C)c1C#N
37 to 39 | CCCCCCCCCCCC(=O)N(N=C=S)C(CCCCN)C(=O)O (stereo not drawn)
260 to 262 | N#Cc1ccc(-c2cc(-c3ccc(C#N)cc3Cl)on2)cc1
161 to 165 | CN=C(NS(=O)(=O)N1CCOCC1)C1=NN(c2ccc(Cl)cc2Cl)C(c2ccccc2)C1 (stereo not drawn)
54 | Cc1ccccc1CO[C@H]1COCO[C@H]1C (relative stereo)
101 | COc1ccc2c(c1)[C@H]1Cc3ccccc3[C@H]1N2 (relative stereo)
194 to 196 | CCn1ncc2nc(C(=O)Nc3nccs3)c(-c3ccccc3)nc21
119 to 120 | CC1c2ccccc2C=Cn2c1n[nH]c2=O (stereo not drawn)
137 to 139 | CSc1nn2c(N3CCNCC3)cc(C)nc2c1S(=O)(=O)c1ccccc1
252 | O=C(NO)c1ccc2c(c1)CN(C(=O)c1ccc3[nH]ccc3c1)CC2
270 | Nc1nc2c(s1)CCCc1ccc(F)cc1-2
125 to 127 | O=C(NC(=O)N1CCSC1c1ccccc1OCCN1CCN(c2cccc(F)c2)CC1)c1ccccc1 (stereo not drawn)
99 to 104 | CCc1cccc(N)c1C(=O)O
205 to 208 | CC12CC(O)C3c4ccccc4C(=O)CC3C1CCC2O (stereo not drawn)
> 250 | COc1ccc2cc3c(cc2c1)C(=O)NC3=O
149 to 151 | CC1c2cccc3c2N(CC3)c2ccccc2N1C(=O)CCBr (stereo not drawn)
309 to 311 | COc1cc(OC)c2c(=O)[nH]c(-c3ccc(OCC(N)=O)cc3)nc2c1

melting point [°C] | SMILES
61 to 62 | COc1ccc(-c2c(C(=O)O)n(Cc3cc4c(cc3Cl)OCO4)c3ccccc23)c(OCC(=O)O)c1
82 to 84 | COC(=O)CC(=O)c1cc(C(=O)OC)cc(-n2cccc2)c1
227 | Cc1ccc(-c2cccc(C(=O)O)n2)cc1C(=O)NCC12CC3CC(CC(C3)C1)C2
140 to 141 | CN(C)CCCNC(=O)c1ccc(-c2nnc(CSCCOc3ccc(Cl)cc3Cl)o2)cc1
107 to 108 | N#CCNC(=O)COc1ccc(Cl)cc1Cl
141 to 144 | CCOC(=O)c1cc2c3cc4ccccc4cc3ccc2n1C
59 to 61 | CCOC(=O)c1ccc(COc2cccc3oc(C)cc23)cc1
98 to 99 | CC(C)n1c(CCC2C[C@@H](O)CC(=O)O2)c(-c2ccc(F)cc2)c(-c2ccccc2)c1C(=O)Nc1ccc(F)cc1 (stereo partly drawn)
168 to 169 | CN1C(=O)C(=O)c2cc([N+](=O)[O-])cc(C(F)(F)F)c21
192 | CN1C(=O)N(c2ccccc2O)Cc2cnc(Nc3ccccc3)nc21
166 to 169 | O=C(c1cccs1)C1C(=O)N(C(=O)NS(=O)(=O)Cl)c2ccc(Cl)cc21 (stereo not drawn)
215 | CC(C)c1ccc(N(Cc2cnn(C)c2)C(=O)C2CCCc3c(O)cccc32)cc1 (stereo not drawn)
193 to 195 | O=C(C=Cc1cccc(F)c1F)c1cnc2sc3c(n12)CCCCC3
43 to 44 | O=C(CCCCl)c1ccc2ccccc2c1
218 to 219 | CC(C)c1cc(C(=O)Nc2cc(F)c(C(=O)O)c(F)c2)sc1C(C)C
200 to 204 | CCOC(=O)c1ncn2c(-c3ccccc3)ccnc12
138 | OCc1c(-c2ccccc2)c(-c2ccccc2)nn1Cc1ccccc1
231 | Cc1ccc2c(n1)[nH]c1ccc(C(=O)c3ccccc3)cc12
195 to 197 | CCN1CC(=O)N(CC)c2cc(Nc3ncc(Cl)c(Nc4ccccc4S(=O)(=O)N(C)C)n3)c(OC)cc2C1
108 to 109 | CCOC(=O)c1ncoc1-c1cc(Cl)nc(Cl)c1
199 to 201 | CNC1COc2ccc3[nH]c(C(F)(F)F)nc3c2O1 (stereo not drawn)
196 to 198 | CC(COc1c(-c2ccccc2)c(=O)[nH]c2cc(Cl)ccc12)=NO
168 to 169 | COc1ccnc(CSc2nc3c(C)c(OC(F)F)c(C)cc3[nH]2)c1
152 | N#CC(CCC(=O)O)(CC(=O)O)c1ccc(Cl)c(Cl)c1 (stereo not drawn)
269 to 270 | CCc1cc(=O)c2nc(Cl)ccc2[nH]1

melting point [°C] | SMILES
131 to 132 | CCOC(=O)c1cc(Cl)c2cccc(OC)c2n1
151 to 153 | COc1ccc2oc(N(C=O)[C@@H](Cc3ccccn3)c3ncc(-c4ccc(-n5ccnc5)cc4)n3C)cc2c1
195 to 196 | CCNc1nc(-c2ccc(F)cc2C)c2ccc(=O)n(-c3c(F)cccc3F)c2n1
160 | CC(C)(C)OC(=O)NCCn1c(=S)[nH][nH]c(=O)c1=O
65 | CCOC(=O)C(O)=CC=C(SC)C(=O)c1ccc(N2CCCCC2)cc1
198 to 200 | ON=c1cc(-c2cc3cccn3cn2)oc2ccc(OCCOc3ccncc3)cc12
38 to 39 | CCCCCCC(=O)COS(=O)(=O)c1ccc(OCC)cc1
210 | CC1(C)CCCN(C(=O)[C@H]2C[C@H](S(=O)(=O)c3ccccc3)[C@@H](c3ccccc3F)N2)C1 (racemic)
191 to 192 | O=S1(=O)NCN(C2CCCCCC2)c2cc(Cl)c(Cl)cc21
64 to 80 | Cc1ccc2c(c1)Nc1ccccc1N=C2N1CCN[C@@H](CCc2ccccc2)C1
209 to 211 | CCOC(=S)Nc1cccc(-c2ccnc3c(C(=O)c4cccs4)cnn23)c1
84 to 85 | CCOC(=O)C=Cc1cccc(N)c1
174 to 177 | CC(C(=O)N(C)c1ccccc1)n1c(-c2ccc(Cl)cc2)nc2cccnc21 (stereo not drawn)
139 to 145 | COc1cccc(NC(=O)c2cccs2)c1
186 to 188 | NC(=S)c1cn(COCCO)c2ncnc(N)c12
105 to 107 | CS(=O)(=O)c1ncc(F)c(NCc2ccccc2F)n1
108 to 109 | O=S(=O)(N[C@@H]1C[C@@H](/C=C\CCCCO)N(S(=O)(=O)c2ccc(Cl)cc2)C1)c1ccc(Cl)cc1
106 | COC(=O)c1ccc(/C=C(\C)c2ccc3c(c2)CCCCN3C)cc1
51 to 53 | Fc1ccc(C2CCC3(CC2)OCCO3)cc1
193 to 195 | C=C(C(=O)c1c(OC)ccc(-c2cccs2)c1OC)c1ccc(C(=O)O)cc1
> 230 | CSc1nn2c(N)cc(Cl)nc2c1S(=O)(=O)c1ccccc1
274 to 276 | O=C1C2=C(CCCC2)C(=O)N1c1ccc2c(c1)NC(=O)C21CC1
220 to 225 | CC(C)c1cc2n(CCc3ccccc3)cc(C(=O)O)c(=O)n2n1
